Source: article PMC12057359, “Inhibitory effect of copper chelators on the budding in Candida albicans” (Antimicrobial Agents and Chemotherapy, 2025)
Counter-ions that a name gives are not always drawn. Like-named read-outs stand apart in the source and are kept apart here.

Legend:
C. albicans JCM1542 [1] = test: iHOPE antimicrobial microdilution assay (turbidity OD600); type: cell-based, Candida albicans
A. fumigatus Af293 = test: iHOPE antimicrobial microdilution assay; type: cell-based, Aspergillus fumigatus; conditions: SD in parentheses, n = 3, read-out: IC50 against A. fumigatus Af293
P. oryzae Kita-1 = test: microbe, parasite or virus in culture; type: cell-based, Pyricularia oryzae
S. aureus 209P = test: iHOPE antimicrobial microdilution assay; type: cell-based, Staphylococcus aureus; conditions: SD in parentheses, n = 3, read-out: IC50 against S. aureus 209P
E. coli HO-141 = test: iHOPE antimicrobial microdilution assay; type: cell-based, Escherichia coli; conditions: SD in parentheses, n = 3, read-out: IC50 against E. coli HO-141
HL-60 RCB0041 = test: iHOPE in vitro cytotoxicity assessment (Cell Count Reagent SF); type: cell-based, human
Experimental: (§1) The method for in vitro cytotoxicity assessment using Cell Count Reagent SF (Nacalai Tesque) has been described previously ([15]). […] Test compounds were added to the culture medium, and then the plates were incubated at 28°C for 24 h.

C. albicans JCM1542 [2] = type: cell-based, Candida albicans
[3] = iHOPE in vitro cytotoxicity assessment (Cell Count Reagent SF); type: cell-based, human; conditions: human
Experimental: as §1

C. glabrata JCM3761 = test: iHOPE antimicrobial microdilution assay (turbidity OD600); type: cell-based, Candida glabrata; conditions: Nakaseomyces glabratus, JCM3761; MOPS-RPMI medium, 24 h; SD in parentheses, n = 3; read-out: IC50 against C. glabrata JCM3761
C. tropicalis JCM1541 = test: as above; type: cell-based; conditions: Candida tropicalis, JCM1541; MOPS-RPMI medium, 24 h; SD in parentheses, n = 3; read-out: IC50 against C. tropicalis JCM1541
C. auris Ci6684 = test: as above; type: cell-based, Candida auris; conditions: Candidozyma auris, CI6684; MOPS-RPMI medium, 24 h; SD in parentheses, n = 3; read-out: IC50 against C. auris Ci6684
C. auris VPCI673 = test: as above; type: cell-based, Candida auris; conditions: Candidozyma auris, VPCI673; MOPS-RPMI medium, 24 h; SD in parentheses, n = 3; read-out: IC50 against C. auris VPCI673
[4] = MOPS-RPMI medium, 28°C, 24 h, OD600; standard deviation in parentheses, n = 3; read-out: IC50 against C. albicans JCM1542
[5] = Candida albicans, JCM1542, 24 h, read-out: IC50 against C. albicans JCM1542
[6] = Candida albicans, JCM1542; MOPS-RPMI medium, 28°C, 24 h, OD600; standard deviation in parentheses, n = 3; read-out: IC50 against C. albicans JCM1542
[7] = SD in parentheses, n = 3, read-out: IC50 against HL-60 RCB0041 (cytotoxicity)
[8] = Pyricularia oryzae, KITA1, read-out: IC50 against P. oryzae Kita-1
[9] = C. albicans JCM1542, MOPS-RPMI medium, 24 h

For `OO` [H2O2], the IC50 (C. albicans JCM1542 [1]; [4]) was 550 µM.

Compound `[Cl][Cu][Cl]` [Cu^2+, copper chloride (II)] has an IC50 (C. albicans JCM1542 [1]; [4]) of over 30 µM, an IC50 (A. fumigatus Af293) of over 30 µM and an IC50 (P. oryzae Kita-1; SD in parentheses, n = 3, read-out: IC50 against P. oryzae Kita-1) of over 30 µM. It also gave an IC50 (S. aureus 209P) of over 30 µM, an IC50 (E. coli HO-141) of over 30 µM and an IC50 (HL-60 RCB0041) of over 30 µM. The “concentration leading to earlier budding of C. albicans” value (C. albicans JCM1542 [2]) was at least 1 µM.

`CCCCCC[C@H]1C(=O)O[C@H](C)[C@H](NC(=O)c2cccc(NC=O)c2O)C(=O)O[C@@H](C)[C@@H]1OC(=O)CC(C)C` [Antimycin A, antimycin A] showed an IC50 (C. albicans JCM1542 [1]; [5]) of 0.035 µM.

With oligomycin A the IC50 (C. albicans JCM1542 [1]; read-out: IC50 against C. albicans JCM1542; MOPS-RPMI medium, 28°C, 24 h, OD600; standard deviation in parentheses, n = 3) was 3.1 µM.

`C/C=C(\C)[C@H](O)[C@H](C)/C=C(C)/C=C/C/C(C)=C/Cc1nc(OC)c(OC)c(O)c1C` [Piericidin A, piericidin A] showed an IC50 (C. albicans JCM1542 [1]; [5]) of 12 µM.

With `[C-]#[N+][C@@H](C)CC(=O)NCc1ccc(N)cc1` [8b] the “antifungal activity / inhibition of budding against C. albicans (in words)” value (C. albicans JCM1542 [1]; C. albicans JCM1542) was “weak antifungal activity and inhibition of budding”, the IC50 (C. albicans JCM1542 [1]; [6]) was 1.8 µM and the IC50 [3, 7] was over 30 µM.

With `[C-]#[N+][C@@H](C)CC(=O)NCc1ccc(NC(=O)C[C@H](C)[N+]#[C-])cc1` [10b] the IC50 (C. albicans JCM1542 [1]; [6]) was 0.19 µM and the IC50 [3, 7] was over 30 µM.

`[C-]#[N+][C@H](C)CC(=O)N[C@H]1CC[C@@H](NC(=O)C[C@@H](C)[N+]#[C-])CC1` [15a] showed an IC50 (C. albicans JCM1542 [1]; [6]) of 0.015 µM, an IC50 (C. glabrata JCM3761) of 0.0082 µM and an IC50 (C. tropicalis JCM1541) of 0.032 µM. The IC50 (C. auris Ci6684) was 0.049 µM, the IC50 (C. auris VPCI673) was 0.064 µM and the IC50 [3, 7] was over 30 µM.

Work on `[C-]#[N+][C@H](C)CC(=O)Nc1ccc(NC(=O)C[C@@H](C)[N+]#[C-])cc1` [13a] yielded an IC50 (C. albicans JCM1542 [1]; [6]) of 0.41 µM and an IC50 [3, 7] of over 30 µM.

In the case of `CCCC(=O)NCc1ccc(NC(=O)CCC)cc1` [compound 11], the “antifungal activity / inhibition of budding against C. albicans (in words)” value (C. albicans JCM1542 [1]; C. albicans JCM1542) is reported as “did not mediate any changes in either the survival rate or morphology”, the IC50 (C. albicans JCM1542 [1]; [6]) is reported as over 30 µM and the IC50 [3, 7] is reported as over 30 µM.

`CC(C)(S)[C@@H](N)C(=O)O` [D-Penicillamine, D-penicillamine] gave an IC50 (C. glabrata JCM3761) of 270 µM, an IC50 (C. tropicalis JCM1541) of over 1000 µM and an IC50 (C. auris Ci6684) of over 1000 µM. It also gave an IC50 (C. auris VPCI673) of over 1000 µM, an IC50 (A. fumigatus Af293; Aspergillus fumigatus, AF293) of over 1000 µM and an IC50 (P. oryzae Kita-1; [8]) of over 1000 µM. For the same compound, the IC50 (S. aureus 209P; Staphylococcus aureus, 209P) was over 1000 µM, the IC50 (E. coli HO-141; Escherichia coli, HO141) was over 1000 µM and the IC50 [3] was over 1000 µM. The “morphological change induced in C. albicans” value (shortened to “morphological change induced”) (C. albicans JCM1542 [2]; [9]) was “morphological changes similar to those observed with SF2768”.

For `[C-]#[N+][C@@H](C)CC(=O)Nc1ccc(NC(=O)C[C@H](C)[N+]#[C-])cc1` [13b], the IC50 (C. albicans JCM1542 [1]; [6]) was 0.034 µM and the IC50 [3, 7] was over 30 µM.

`NCCNCCNCCN` [Trientine, trientine hydrochloride] showed an IC50 (C. albicans JCM1542 [1]; [6]) of 0.57 µM, an IC50 (C. glabrata JCM3761) of 0.12 µM and an IC50 (C. tropicalis JCM1541) of 18 µM. For the same compound, the IC50 (C. auris Ci6684) was over 100 µM, the IC50 (C. auris VPCI673) was over 100 µM and the IC50 (A. fumigatus Af293; Aspergillus fumigatus, AF293) was 8.1 µM. For the same compound, the IC50 (P. oryzae Kita-1; [8]) was over 100 µM, the IC50 (S. aureus 209P; Staphylococcus aureus, 209P) was over 100 µM and the IC50 (E. coli HO-141; Escherichia coli, HO141) was over 100 µM. The IC50 [3] was over 100 µM and the “morphological change induced” value (C. albicans JCM1542 [2]) was “morphological changes similar to those observed with SF2768”.

With `Nc1nc(=O)[nH]cc1F` [5-FC, 5-fluorocytosine] the IC50 (C. albicans JCM1542 [1]; [6]) was 0.19 µM, the IC50 (C. glabrata JCM3761) was 0.081 µM and the IC50 (C. tropicalis JCM1541) was 0.11 µM. The IC50 (C. auris Ci6684) was 0.37 µM, the IC50 (C. auris VPCI673) was 0.27 µM and the IC50 (A. fumigatus Af293; Aspergillus fumigatus, AF293) was 15 µM. The IC50 (P. oryzae Kita-1; [8]) was over 30 µM, the IC50 (S. aureus 209P; Staphylococcus aureus, 209P) was over 30 µM and the IC50 (E. coli HO-141; Escherichia coli, HO141) was over 30 µM. The IC50 [3] was over 30 µM and the “morphological change induced” value (C. albicans JCM1542 [2]; [9]) was “hyphal-rich morphology”.
